The record followed here is ChEMBL document CHEMBL1135341, “Analogue based design of MMP-13 (Collagenase-3) inhibitors” (Bioorg Med Chem Lett, 2002).

This assay concerns the target Collagenase 3 (Homo sapiens, UniProt P45452). Kind of assay: Inhibitory activity against recombinant human matrix metalloprotease-13.

With `COCCOCCC#CCC(NS(=O)(=O)c1ccc(-c2ccc(OC)cc2)cc1)C(=O)O` (configuration not stated), the 50% inhibitory concentration (IC50) is 87.1 nM.

Take `O=C(O)C(CC#Cc1ccccc1)NS(=O)(=O)c1ccc(C#Cc2ccccc2)cc1` (configuration not stated): the IC50 is 89.1 nM.

For orientation: IC50 means the concentration at which inhibition is half-maximal.
